Assay [1] concerns A673 (Ewing's Sarcoma). In words: Bliss excess, mean over the matrix (fraction); higher = more synergy. The gist of the method:
(§1)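 After 24 hours at 37°C and 5% CO2 in 1536-well plates, cells in DMEM/F12 or RPMI plus 10% FBS received two-drug dose matrices for 72 hours. Viability came from CellTiter-Glo 2.0 luminescence and was scaled as inhibition, anchored at 0 by vehicle wells and at 1 by blank wells. Combination Emax is taken as the second-highest inhibition in the matrix, and Bliss excess as the observed combination effect less EA + EB − EA·EB, with EA and EB the single-agent effects.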

The test system of assay [2] is Hs-746T (Gastric Carcinoma). Described as above. The gist of the method: as §1
Assay [3] deals with LNZTA3WT4 (Low Grade Glioma). The assay is described as above. Put shortly: as §1
The test system of assay [4] is NCI-H209 (Small Cell Lung Carcinoma). Described as above. The gist of the method: as §1
Assay [5] has as its system SW1573 (Lung Adenocarcinoma). The description is as above. The gist of the method: as §1
Assay [6] has as its system A673 (Ewing's Sarcoma). Kind of assay: combination Emax (second highest fraction inhibited in the dose matrix, 72 h); higher = more inhibition; extreme values may be limits of the assay. Put shortly: as §1
Assay [7] has as its system BE-13 (T-Lymphoblastic Leukemia). Described as above. Put shortly:
as §1

Assay [8] deals with CAL-72 (Osteosarcoma). The description is as above. The gist of the method:
as §1

The test system of assay [9] is ESS-1 (Other Solid Carcinomas). The description is as above. Put shortly:
as §1

In assay [10] the test system is EW-11 (Ewing's Sarcoma). The description is as above. Put shortly:
as §1

For assay [11], the system named is HuCCT1 (Biliary Tract Carcinoma). The assay is described as above. The gist of the method: as §1
Assay [12] relates to KMRC-20 (Kidney Carcinoma). Described as above. The gist of the method:
as §1

For assay [13], the system named is KYAE-1 (Esophageal Adenocarcinoma). The description is as above. Put shortly: as §1
Assay [14] relates to NCI-H2052 (Mesothelioma). The assay is described as above. The gist of the method: as §1
Assay [15] concerns NUGC-4 (Gastric Carcinoma). The description is as above. Put shortly: as §1
Assay [16] relates to OE21 (Esophageal Squamous Cell Carcinoma). The description is as above. Put shortly:
as §1

Assay [17] has as its system SAS (Oral Cavity Carcinoma). The assay is described as above. Put shortly:
as §1

The subject of assay [18] is SW1710 (Bladder Carcinoma). Described as above. The gist of the method: as §1
Assay [19] has as its system WSU-NHL (B-Cell Non-Hodgkin's Lymphoma). The assay is described as above. Put shortly: as §1
In assay [20] the test system is LS-123 (Colorectal Carcinoma). The assay is described as above. The gist of the method:
as §1
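Throughout, for Bliss excess, mean over the matrix: after 72 h of two-drug dosing.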

For `CN(CCO)CC[C@H](CSc1ccccc1)Nc1ccc(S(=O)(=O)NC(=O)c2ccc(N3CCC([C@@H](O)c4ccccc4-c4ccc(Cl)cc4)CC3)cc2)cc1S(=O)(=O)C(F)(F)F` [AZD4320] + CN(C)CCCOc1ccc(-c2ccc3ncc4c(c3c2)n(C2CCOCC2)c(=O)n4C)cn1 [AZD0156] (first compound max 1 µM, 7x7, partner max 1 µM), the Bliss excess in [1] is 0.0419; in assay [2] it was 0.0037; in assay [3], -0.0259; in assay [4], 0.033; in [5] it was -0.0585. For the same molecule, the “combination Emax” value came to 0.929 in [6]; 0.977 in [7]; 0.332 in [8]; 0.478 in assay [9]; 0.854 in assay [10]; 0.251 in assay [11]. The “combination Emax” value in [12] turned out to be 0.113; in assay [13], 0.338; in [14], 0.201; in assay [15] it was 0.174; in [16], 0.158; in [17], 0.0348. Also, the “combination Emax” value in assay [18] was 0.117; in assay [19], 0.866.
For `CN(CCO)CC[C@H](CSc1ccccc1)Nc1ccc(S(=O)(=O)NC(=O)c2ccc(N3CCC([C@@H](O)c4ccccc4-c4ccc(Cl)cc4)CC3)cc2)cc1S(=O)(=O)C(F)(F)F` [AZD4320] + C[C@@H]1COCCN1C2=NC(=NC(=C2)C3(CC3)[S@](=N)(=O)C)C4=C5C=CNC5=NC=C4 [AZD6738] (first compound max 1 µM, 7x7, partner max 10 µM), the Bliss excess in assay [1] was 0.028; in assay [2], -0.0021; in assay [3], -0.0029; in assay [4], 0.0545; in assay [5], -0.0216. Besides, the “combination Emax” value was 1 in [6]; 1 in assay [7]; 0.932 in assay [8]; 0.992 in assay [9]; 0.957 in assay [10]; 0.765 in [11]. Moreover, the “combination Emax” value in [12] turned out to be 0.721; in assay [13], 0.51; in [14] it was 0.439; in assay [15] it was 0.739; in [16], 0.84; in assay [17], 0.902. Besides, the “combination Emax” value in assay [18] was found to be 0.705; in [19], 0.968.
In the case of `CN(CCO)CC[C@H](CSc1ccccc1)Nc1ccc(S(=O)(=O)NC(=O)c2ccc(N3CCC([C@@H](O)c4ccccc4-c4ccc(Cl)cc4)CC3)cc2)cc1S(=O)(=O)C(F)(F)F` [AZD4320] + C[C@@H](Nc1cc(F)cc(F)c1)c1cc(C(=O)N(C)C)cc2c(=O)cc(N3CCOCC3)oc12 [AZD8186] (first compound max 1 µM, 7x7, partner max 3 µM), the Bliss excess in assay [1] was 0.0149; in assay [2] it was -0.0354; in [3], -0.0197; in [4] it was 0.0529; in assay [5] it was -0.0169. For the same molecule, the “combination Emax” value in assay [6] is 0.971; in assay [7], 1; in [8], 0.487; in [9] it was 0.825; in assay [10] it was 0.938; in assay [11], 0.35. The “combination Emax” value is 0.381 in assay [12]; 0.387 in assay [13]; 0.262 in [14]; 0.564 in assay [15]; 0.216 in assay [16]; 0.77 in assay [17]. Also, the entries for the “combination Emax” value in assay [18] and in assay [19] were 0.373 and 1, respectively.
`CN(CCO)CC[C@H](CSc1ccccc1)Nc1ccc(S(=O)(=O)NC(=O)c2ccc(N3CCC([C@@H](O)c4ccccc4-c4ccc(Cl)cc4)CC3)cc2)cc1S(=O)(=O)C(F)(F)F` [AZD4320] + Cn1cnc2c(F)c(Nc3ccc(Br)cc3Cl)c(C(=O)NOCCO)cc21 [Selumetinib] (first compound max 1 µM, 7x7, partner max 3 µM): the Bliss excess in assay [1] was 0.0944; in assay [2] it was 0.0402; in assay [3], -0.0656; in assay [4], -0.0215; in assay [5], 0.0119. The “combination Emax” value turned out to be 0.971 in [6]; 0.995 in [7]; 0.51 in [8]; 0.851 in assay [9]; 0.934 in assay [10]; 0.571 in [11]. Besides, the “combination Emax” value in assay [12] came to 0.261; in [13] it was 0.377; in assay [14], 0.262; in assay [15] it was 0.766; in [16] it was 0.413; in assay [17], 0.83. For the same molecule, the “combination Emax” value came out at 0.315 in [18] and 0.885 in assay [19].
`Cc1c2c(nn1C)CSCc1cc(n(C)n1)CSc1cc(c3ccccc3c1)OCCCc1c(C(=O)O)n(C)c3c-2c(Cl)ccc13` [AZD5991] + C[C@@H]1COCCN1C2=NC(=NC(=C2)C3(CC3)[S@](=N)(=O)C)C4=C5C=CNC5=NC=C4 [AZD6738] (first compound max 1 µM, 7x7, partner max 10 µM): the Bliss excess in [1] was 0.0077; in assay [2], 0.0423; in assay [3] it was -0.0028; in assay [4], 0.138; in assay [5], 0.0337. Besides, the “combination Emax” value in assay [6] stood at 0.823; in assay [8], 0.832; in assay [9], 0.958; in [10] it was 0.932; in assay [11] it was 0.756; in [12] it was 0.516. The “combination Emax” value in assay [13] stood at 0.207; in assay [20], 0.609; in assay [14], 0.338; in assay [15], 0.561; in [16], 0.844; in [17] it was 0.849. Also, the “combination Emax” value in assay [18] amounted to 0.436; in assay [19], 0.994.
As to `Cc1c2c(nn1C)CSCc1cc(n(C)n1)CSc1cc(c3ccccc3c1)OCCCc1c(C(=O)O)n(C)c3c-2c(Cl)ccc13` [AZD5991] + Cc1cc2ncnn2cc1Nc1ncc2c(n1)n(C1CCOCC1)c(=O)n2C [AZD7648] (first compound max 1 µM, 7x7, partner max 10 µM), the Bliss excess in assay [1] is -0.0515; in [2], -0.0784; in assay [3] it was -0.0144; in assay [5], -0.0896. Further, the “combination Emax” value was determined as 0.471 in assay [6]; 0.406 in assay [7]; 0.523 in [8]; 0.407 in assay [9]; 0.837 in assay [10]; 0.406 in assay [11]. In addition, the “combination Emax” value in assay [12] was determined as 0.295; in [13], 0.194; in assay [20] it was 0.399; in [14], 0.394; in assay [15], 0.279; in assay [16], 0.385. In addition, the figures for the “combination Emax” value in [17], in assay [18] and in assay [19] were 0.286, 0.177 and 0.952, respectively.

These data come from the supplement of paper PMC11061612.
